Data on 13 compounds can be found in paper PMC6403188, “Species-Specific Structural Requirements of Alpha-Branched Trehalose Diester Mincle Agonists” (Frontiers in Immunology, 2019).

Series [1] has as its target T1, mouse Mincle (Mus musculus, UniProt Q9R0Q8).
T1 construct: host or cells: HEK (HEK-Blue) cells with NF-κB-driven SEAP reporter
T1 sequence (Q9R0Q8 1-214): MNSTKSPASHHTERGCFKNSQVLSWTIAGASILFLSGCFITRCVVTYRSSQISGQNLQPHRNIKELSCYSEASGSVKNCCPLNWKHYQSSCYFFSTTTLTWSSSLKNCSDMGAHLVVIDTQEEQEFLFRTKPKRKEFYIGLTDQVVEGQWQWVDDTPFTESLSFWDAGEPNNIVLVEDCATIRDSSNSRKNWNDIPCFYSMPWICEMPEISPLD
The experiment in a line: HEK cells expressing mouse Mincle with NF-κB-driven SEAP reporter. In kind it is cell-based. The settings on record: for EC50: average calculated EC50, n = 3, read-out: mMincle EC50 (converted); for EC50 / SEAP induction / activation of mouse Mincle-expressing HEK cells (in words): plate-coated compound, 24 h; for Relative activity in mouse vs. human Mincle HEK cells: comparison of mouse and human Mincle receptor transfected HEK cells. Here is the method: (§1) Human and mouse Mincle expressing HEK cells were obtained from Invivogen (San Diego, CA). Cells were cultured according to the manufactures instructions in DMEM with 10% FBS, 50 U/ml penicillin, […] streptomycin, […] Normocin, 2 mM L-glutamine, 30 μg/ml blasticidin, 1 μg/ml puromycin and 1x HEK-Blue™ CLR Selection. For assay, indicated compounds were serially diluted in diluent (50%IPA/50% isooctane), 20 μl of a 10x final concentration were applied to the bottom of a 96-well tissue culture plate and the solvent was evaporated for >1 h in a biosafety hood. HEK cells were applied to the plates at a density of 3 × 10^5 cells/well and incubated for 18–24 h at 37°C. Cell supernatants were harvested and analyzed via the manufacturer's instructions using Hek-Blue^TM Detection. SEAP activity was assessed by reading the optical density (OD) at 620–655 nm with a microplate reader; data are expressed as the fold change in OD over vehicle treated cells.
(§2) To investigate the capacity of these molecules to bind to and activate the Mincle receptor, we used human embryonic kidney (HEK) cells expressing the human or mouse Mincle receptor along with an NF-κB-driven secreted embryonic alkaline phosphatase (SEAP) reporter. Many of the αTDE compounds were able to induce production of SEAP in a dose dependent manner (Figure 2). HEK null cells (HEK cells containing the NF-kB reporter without Mincle receptor) were used as a negative controls to confirm the receptor specificity of the compounds in HEK cells expressing human or mouse Mincle reporter (Supplemental Figure 4). […] The relative activity of TDM and TDB in the human and mouse HEK cells is consistent with the results reported by others ([20]). […] This synthetic version is a shorter chain version of the lipid-derived one reported to be “human-specific” ([28]).
(§3) Figure 2 Activation of human or mouse Mincle in response to synthetic αTDE compounds. The indicated compounds were dissolved in 50% isopropanol/isooctane, serially diluted in vehicle and then dried to the bottom of a tissue culture plate. HEK cells transfected with human (A–C) or mouse (D–F) Mincle and an NF-κB-driven SEAP reporter were incubated with the compounds for 24 h followed by assessment of the supernatants for SEAP levels. Data are represented as fold change in OD650 over vehicle treated cells. Graphs are mean values from three independent experiments ± SEM. Table in (G) represents the average calculated EC50 and average max SEAP value (± SD, n = 3) for each compound in each cell line. […]

The test system of series [2] is Hek Blue human or mouse Mincle-expressing cells. In kind it is cell-based. The conditions noted are these: top concentrations, 24 h; compared with vehicle only-treated cells.
The target of series [3] is T2, human Mincle (Homo sapiens, UniProt Q9ULY5).
T2 construct: host or cells: HEK (HEK-Blue) cells with NF-κB-driven SEAP reporter
T2 sequence (Q9ULY5 1-219): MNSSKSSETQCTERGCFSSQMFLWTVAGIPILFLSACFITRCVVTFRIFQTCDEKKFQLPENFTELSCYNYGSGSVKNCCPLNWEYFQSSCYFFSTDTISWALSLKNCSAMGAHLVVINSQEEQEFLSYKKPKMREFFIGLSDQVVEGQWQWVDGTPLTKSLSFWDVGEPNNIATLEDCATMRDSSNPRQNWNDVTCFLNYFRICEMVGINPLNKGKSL
Briefly: HEK cells expressing human Mincle with NF-κB-driven SEAP reporter. The conditions noted are these: plate-coated compound, 24 h; for EC50: average calculated EC50, n = 3, read-out: hMincle EC50 (converted). The series is classed as cell-based. The method, then: as §1, §2, §3

For series [4], the system named is THP-1 cells. Briefly: TNFα production from THP-1 cells (ELISA). The conditions noted are these: plate-coated compound, 24 h. In kind it is cell-based, human. Here is the method:
Supernatants were harvested from treated cells following 18–24 h of incubation. Supernatants were analyzed using a DuoSet TNFα ELISA (R&D Systems, Minneapolis, MN) or Luminex multiplex panel for analytes TNFα, IL-1β, IL-6, IFNγ, IL-12p70, and IL-23 (R&D Systems) per the manufacturer's instructions. Multiplex analysis was performed using a Luminex 200 instrument (Luminex Corporation) and analyzed with StarStation2.3 software. ELISAs were read on a plate reader at 450 nm and cytokine concentration was calculated by fitting the standard curve OD values to a 4-parameter logistical model using curve fitting software (XLfit, IDBS, Alameda, CA).
Next, investigation into activity of the alpha-branched TDE compounds was extended to include both human and murine monocytic cell lines, THP-1 and RAW264.7, respectively. These cell lines have previously been reported as responsive to the Mincle receptor agonists TDM and TDB ([30], [31]).
Figure 3 TNFα production from human THP-1 cells in response to stimulation with synthetic αTDE compounds. The indicated compounds were dissolved in 50% isopropanol/isooctane, serially diluted in vehicle and then dried to the bottom of a tissue culture plate. THP-1 cells were applied to the compound-coated plates and incubated at 37°C; supernatant was harvested 24 h later and analyzed for TNFα via ELISA (A-E). Results from the 200 μg/ml concentration vs. each compounds acyl chain length are shown in (F). Data points are average of at least two independent experiments ± SD.
In general terms: An ELISA detects its analyte on a solid surface through an enzyme-linked reagent.

In general, EC50 refers to the concentration giving half of the maximal effect. Take `CCCCCC(CCCCC)C(=O)OC[C@H]1O[C@H](O[C@H]2O[C@H](COC(=O)C(CCCCC)CCCCC)[C@@H](O)[C@H](O)[C@H]2O)[C@H](O)[C@@H](O)[C@@H]1O` [Compound B12]: in series [1], the concentration for a half-maximal effect (EC50) was 1.26 µM. In addition, the “Cell viability of Mincle HEK cells” value in series [2] is “marked decreases in viability”.
`CCCCCCC(CCCCCC)C(=O)OC[C@H]1O[C@H](O[C@H]2O[C@H](COC(=O)C(CCCCCC)CCCCCC)[C@@H](O)[C@H](O)[C@H]2O)[C@H](O)[C@@H](O)[C@@H]1O` [Compound B14]: in series [1], the EC50 is 1.52 µM. In addition, the “Cell viability of Mincle HEK cells” value in series [2] is “less substantial decreases”.
Regarding `CCCCCCCCC(CCCCCCCC)C(=O)OC[C@H]1O[C@H](O[C@H]2O[C@H](COC(=O)C(CCCCCCCC)CCCCCCCC)[C@@H](O)[C@H](O)[C@H]2O)[C@H](O)[C@@H](O)[C@@H]1O` [Compound B18], the 50% effective concentration (EC50) in series [3] is 0.405 µM; in series [1], 0.599 µM. The “Cell viability of Mincle HEK cells” value in series [2] is on record as “less substantial decreases”.
On the same counts, the results for `CCCCCCCCCC(CCCCCCCCC)C(=O)OC[C@H]1O[C@H](O[C@H]2O[C@H](COC(=O)C(CCCCCCCCC)CCCCCCCCC)[C@@H](O)[C@H](O)[C@H]2O)[C@H](O)[C@@H](O)[C@@H]1O` [Compound B20] are 0.128 µM, 0.328 µM and “less substantial decreases”.
On the same counts, the results for `CCCCCCCCCCC(CCCCCCCCCC)C(=O)OC[C@H]1O[C@H](O[C@H]2O[C@H](COC(=O)C(CCCCCCCCCC)CCCCCCCCCC)[C@@H](O)[C@H](O)[C@H]2O)[C@H](O)[C@@H](O)[C@@H]1O` [Compound B22] are 0.322 µM, 0.689 µM and “less substantial decreases”.
On the same counts, the results for `CCCCCCCCCCCC(CCCCCCCCCCC)C(=O)OC[C@H]1O[C@H](O[C@H]2O[C@H](COC(=O)C(CCCCCCCCCCC)CCCCCCCCCCC)[C@@H](O)[C@H](O)[C@H]2O)[C@H](O)[C@@H](O)[C@@H]1O` [Compound B24] are 0.0926 µM, 0.608 µM and “less substantial decreases”.
For `CCCCCCCCCCCCC(CCCCCCCCCCCC)C(=O)OC[C@H]1O[C@H](O[C@H]2O[C@H](COC(=O)C(CCCCCCCCCCCC)CCCCCCCCCCCC)[C@@H](O)[C@H](O)[C@H]2O)[C@H](O)[C@@H](O)[C@@H]1O` [Compound B26], the half-maximal effective concentration (EC50) in series [3] is 0.263 µM; in series [1] it was 0.907 µM. Besides, in series [4], the “TNFα induction from THP-1 cells (in words)” value (“TNFα induction” for short) is “roughly equivalent levels of TNFα as B14/B16”.
For `CCCCCCCCCCCCCC(CCCCCCCCCCCCC)C(=O)OC[C@H]1O[C@H](O[C@H]2O[C@H](COC(=O)C(CCCCCCCCCCCCC)CCCCCCCCCCCCC)[C@@H](O)[C@H](O)[C@H]2O)[C@H](O)[C@@H](O)[C@@H]1O` [Compound B28], the EC50 in series [3] was 0.0774 µM; in series [1] it was 0.592 µM.
On the same counts, the results for `CCCCCCCCCCCCCCC(CCCCCCCCCCCCCC)C(=O)OC[C@H]1O[C@H](O[C@H]2O[C@H](COC(=O)C(CCCCCCCCCCCCCC)CCCCCCCCCCCCCC)[C@@H](O)[C@H](O)[C@H]2O)[C@H](O)[C@@H](O)[C@@H]1O` [Compound B30] are 0.0438 µM and 0.955 µM.
On the same counts, the results for `CCCCCCCCCCCCCCCC(CCCCCCCCCCCCCCC)C(=O)OC[C@H]1O[C@H](O[C@H]2O[C@H](COC(=O)C(CCCCCCCCCCCCCCC)CCCCCCCCCCCCCCC)[C@@H](O)[C@H](O)[C@H]2O)[C@H](O)[C@@H](O)[C@@H]1O` [Compound B32] are 0.0502 µM and 0.0644 µM.
On the same counts, the results for `CCCCCCCCCCCCCCCCCC(CCCCCCCCCCCCCCCCC)C(=O)OC[C@H]1O[C@H](O[C@H]2O[C@H](COC(=O)C(CCCCCCCCCCCCCCCCC)CCCCCCCCCCCCCCCCC)[C@@H](O)[C@H](O)[C@H]2O)[C@H](O)[C@@H](O)[C@@H]1O` [Compound B36] are 21.4 µM and 25.8 µM.
Regarding `CCCCCCCCCCCCCCCC(O)C(CCCCCCCCCCCCCC)C(=O)OCC(O)CO` (centres unmarked) [MMG, synthetic glycerol monomycolate, reference compound], in series [3], the “SEAP induction / activation of human Mincle-expressing HEK cells (in words)” value was “able to activate”. Besides, in series [1], the “Relative activity in mouse vs. human Mincle HEK cells” value is recorded as “more potent in mouse Mincle HEK cells” and the “SEAP induction / activation of mouse Mincle-expressing HEK cells (in words)” value was “able to activate”. For the same compound, the “TNFα induction” value in series [4] is “potent, robust induction of TNFα”.
Turning to `CCCCCCCCCCCCCCCC(O)C(CCCCCCCCCCCCCC)C(=O)OC[C@H]1O[C@H](O[C@H]2O[C@H](COC(=O)C(CCCCCCCCCCCCCC)C(O)CCCCCCCCCCCCCCC)[C@@H](O)[C@H](O)[C@H]2O)[C@H](O)[C@@H](O)[C@@H]1O` (some centres unmarked) [sTDCM, synthetic trehalose dicorynomycolate, reference compound], the “SEAP induction / activation of human Mincle-expressing HEK cells (in words)” value in series [3] was “robust ability to activate”. In addition, in series [1], the “Relative activity in mouse vs. human Mincle HEK cells” value was “more potent in the mouse vs. the human” and the “SEAP induction / activation of mouse Mincle-expressing HEK cells (in words)” value is “robust ability to activate”. Further, the “TNFα induction” value in series [4] is listed as “potent, robust induction of TNFα”.
